Measurements reported in PubChem BioAssay (NCI).
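In this assay, cells in 96-well plates receive the compound at five concentrations for 48 hours. Endpoints are linearly interpolated between the surrounding concentrations. At the GI50, growth is halved. TGI: total growth inhibition.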

What was measured:
Test in all cases: inhibition of tumour cell growth, NCI panel, 48 h
[1] = test system: UACC-62 melanoma
[2] = test system: OVCAR-8 ovarian
[3] = test system: IGROV1 ovarian
[4] = test system: HCT-15 colon
[5] = test system: SF-295 CNS
[6] = test system: NCI/ADR-RES ovarian
[7] = test system: U251 CNS
[8] = test system: 786-0 renal
[9] = test system: A498 renal
[10] = test system: PC-3 prostate
[11] = test system: MDA-MB-231 breast
[12] = test system: SK-OV-3 ovarian
[13] = test system: COLO 205 colon
[14] = test system: T-47D breast
[15] = test system: SNB-75 CNS
[16] = test system: RPMI-8226 leukemia
[17] = test system: OVCAR-5 ovarian
[18] = test system: HOP-62 NSCLC
[19] = test system: BT-549 breast
[20] = test system: RXF 393 renal
[21] = test system: NCI-H522 lung
[22] = test system: HT29 colon
[23] = test system: MALME-3M melanoma
[24] = test system: OVCAR-3 ovarian
[25] = test system: TK-10 renal
[26] = test system: DU-145 prostate
[27] = test system: SW-620 colon
[28] = test system: SK-MEL-2 melanoma
[29] = test system: K-562 leukemia
[30] = test system: ACHN renal
[31] = test system: SN12C renal
[32] = test system: SNB-19 CNS
[33] = test system: HS 578T breast
[34] = test system: MDA-MB-435
[35] = test system: SK-MEL-28 melanoma
[36] = test system: HL-60(TB) leukemia
[37] = test system: HCC-2998 colon
[38] = test system: M14 melanoma
[39] = test system: CAKI-1 renal
[40] = test system: NCI-H460 lung
[41] = test system: SF-268 CNS
[42] = test system: EKVX NSCLC
[43] = test system: A549 NSCLC
[44] = test system: MOLT-4 leukemia
[45] = test system: SK-MEL-5 melanoma
[46] = test system: KM12 colon
[47] = test system: SF-539 CNS
[48] = test system: UO-31 renal
[49] = test system: MCF7 breast
[50] = test system: OVCAR-4 ovarian
[51] = test system: LOX IMVI melanoma
[52] = test system: HCT-116 colon
[53] = test system: NCI-H23 lung
[54] = test system: CCRF-CEM leukemia
[55] = test system: SR leukemia
[56] = test system: HOP-92 NSCLC
[57] = test system: UACC-257 melanoma

For `O=C1NC(=O)C(c2ccccc2)=C1Nc1ccccc1`, the GI50 [1] was > 25 µM, the TGI [1] was > 25 µM and the GI50 [2] was > 25 µM. The TGI [2] was > 25 µM, the GI50 [3] was > 25 µM and the TGI [3] was > 25 µM. For the same compound, the GI50 [4] was > 25 µM, the TGI [4] was > 25 µM and the GI50 [5] was > 25 µM. For the same compound, the TGI [5] was > 25 µM, the GI50 [6] was > 25 µM and the TGI [6] was > 25 µM. For the same compound, the GI50 [7] was > 25 µM, the TGI [7] was > 25 µM and the GI50 [8] was > 25 µM. The TGI [8] was > 25 µM, the GI50 [9] was > 22.1 µM and the TGI [9] was > 25 µM. For the same compound, the GI50 [10] was > 25 µM, the TGI [10] was > 25 µM and the GI50 [11] was > 25 µM. The TGI [11] was > 25 µM, the GI50 [12] was > 25 µM and the TGI [12] was > 25 µM. The GI50 [13] was > 25 µM, the TGI [13] was > 25 µM and the GI50 [14] was > 25 µM. For the same compound, the TGI [14] was > 25 µM, the GI50 [15] was > 25 µM and the TGI [15] was > 25 µM. The GI50 [16] was > 25 µM, the TGI [16] was > 25 µM and the GI50 [17] was > 25 µM. The TGI [17] was > 25 µM, the GI50 [18] was > 25 µM and the TGI [18] was > 25 µM. For the same compound, the GI50 [19] was > 25 µM, the TGI [19] was > 25 µM and the GI50 [20] was > 25 µM. For the same compound, the TGI [20] was > 25 µM, the GI50 [21] was > 25 µM and the TGI [21] was > 25 µM. The GI50 [22] was > 25 µM, the TGI [22] was > 25 µM and the GI50 [23] was > 25 µM. The TGI [23] was > 25 µM, the GI50 [24] was > 25 µM and the TGI [24] was > 25 µM. For the same compound, the GI50 [25] was > 25 µM, the TGI [25] was > 25 µM and the GI50 [26] was > 25 µM. For the same compound, the TGI [26] was > 25 µM, the GI50 [27] was > 25 µM and the TGI [27] was > 25 µM. For the same compound, the GI50 [28] was > 25 µM, the TGI [28] was > 25 µM and the GI50 [29] was > 25 µM. The TGI [29] was > 25 µM, the GI50 [30] was > 25 µM and the TGI [30] was > 25 µM. For the same compound, the GI50 [31] was > 25 µM, the TGI [31] was > 25 µM and the GI50 [32] was > 25 µM. The TGI [32] was > 25 µM, the GI50 [33] was 16.3 µM and the TGI [33] was > 25 µM. The GI50 [34] was > 25 µM, the TGI [34] was > 25 µM and the GI50 [35] was > 25 µM. For the same compound, the TGI [35] was > 25 µM, the GI50 [36] was > 25 µM and the TGI [36] was > 25 µM. The GI50 [37] was > 25 µM, the TGI [37] was > 25 µM and the GI50 [38] was > 25 µM. The TGI [38] was > 25 µM, the GI50 [39] was > 25 µM and the TGI [39] was > 25 µM. The GI50 [40] was > 25 µM, the TGI [40] was > 25 µM and the GI50 [41] was > 25 µM. For the same compound, the TGI [41] was > 25 µM, the GI50 [42] was > 25 µM and the TGI [42] was > 25 µM. For the same compound, the GI50 [43] was > 25 µM, the TGI [43] was > 25 µM and the GI50 [44] was > 25 µM. The TGI [44] was > 25 µM, the GI50 [45] was > 25 µM and the TGI [45] was > 25 µM. The GI50 [46] was > 25 µM, the TGI [46] was > 25 µM and the GI50 [47] was > 25 µM. The TGI [47] was > 25 µM, the GI50 [48] was > 25 µM and the TGI [48] was > 25 µM. The GI50 [49] was > 25 µM, the TGI [49] was > 25 µM and the GI50 [50] was > 25 µM. The TGI [50] was > 25 µM, the GI50 [51] was > 25 µM and the TGI [51] was > 25 µM. The GI50 [52] was > 25 µM and the TGI [52] was > 25 µM.
With `N#Cc1c2ccccc2c2nnc3ccc(C(F)(F)F)cc3n12` the GI50 [1] was 66.8 µM, the TGI [1] was > 100 µM and the GI50 [53] was 33.5 µM. For the same compound, the TGI [53] was > 100 µM, the GI50 [2] was 43.8 µM and the TGI [2] was > 100 µM. For the same compound, the GI50 [3] was 47.9 µM, the TGI [3] was > 100 µM and the GI50 [4] was 40.6 µM. The TGI [4] was > 100 µM, the GI50 [5] was 42.7 µM and the TGI [5] was > 100 µM. The GI50 [6] was 72.7 µM, the TGI [6] was > 100 µM and the GI50 [7] was 28.9 µM. For the same compound, the TGI [7] was > 100 µM, the GI50 [8] was > 100 µM and the TGI [8] was > 100 µM. For the same compound, the GI50 [54] was 71 µM, the TGI [54] was > 100 µM and the GI50 [10] was 61.1 µM. The TGI [10] was > 100 µM, the GI50 [11] was 88.1 µM and the TGI [11] was > 100 µM. The GI50 [55] was 0.214 µM, the TGI [55] was > 100 µM and the GI50 [12] was 89.9 µM. The TGI [12] was > 100 µM, the GI50 [13] was 39.4 µM and the TGI [13] was > 100 µM. For the same compound, the GI50 [14] was > 100 µM, the TGI [14] was > 100 µM and the GI50 [15] was 47.6 µM. For the same compound, the TGI [15] was > 100 µM, the GI50 [16] was 29.4 µM and the TGI [16] was > 100 µM. The GI50 [18] was > 100 µM, the TGI [18] was > 100 µM and the GI50 [19] was 21 µM. It also gave a TGI [19] of 44.6 µM, a GI50 [20] of 23.4 µM and a TGI [20] of 80.3 µM. For the same compound, the GI50 [21] was 17 µM, the TGI [21] was 68.1 µM and the GI50 [22] was 61.8 µM. The TGI [22] was > 100 µM, the GI50 [23] was 47.9 µM and the TGI [23] was > 100 µM. The GI50 [24] was 38.2 µM, the TGI [24] was > 100 µM and the GI50 [25] was 23 µM. The TGI [25] was > 100 µM, the GI50 [26] was 28 µM and the TGI [26] was > 100 µM. The GI50 [27] was 66.7 µM, the TGI [27] was > 100 µM and the GI50 [28] was 23.5 µM. The TGI [28] was 85.2 µM, the GI50 [29] was 59.9 µM and the TGI [29] was > 100 µM. The GI50 [30] was 27.3 µM, the TGI [30] was > 100 µM and the GI50 [31] was > 100 µM. The TGI [31] was > 100 µM, the GI50 [32] was > 100 µM and the TGI [32] was > 100 µM. The GI50 [34] was 32.5 µM, the TGI [34] was > 100 µM and the GI50 [35] was > 100 µM. For the same compound, the TGI [35] was > 100 µM, the GI50 [36] was 40 µM and the TGI [36] was > 100 µM. The GI50 [39] was 43.7 µM, the TGI [39] was > 100 µM and the GI50 [40] was 28.7 µM. The TGI [40] was > 100 µM, the GI50 [41] was 80.7 µM and the TGI [41] was > 100 µM. For the same compound, the GI50 [56] was 91.6 µM, the TGI [56] was > 100 µM and the GI50 [43] was 26.9 µM. The TGI [43] was > 100 µM, the GI50 [44] was 10.4 µM and the TGI [44] was > 100 µM. The GI50 [57] was 21.2 µM, the TGI [57] was 76.3 µM and the GI50 [45] was 16.1 µM. The TGI [45] was 39.8 µM, the GI50 [46] was 61.2 µM and the TGI [46] was > 100 µM. The GI50 [48] was 85.6 µM, the TGI [48] was > 100 µM and the GI50 [49] was 27.6 µM. The TGI [49] was > 100 µM, the GI50 [50] was 97.9 µM and the TGI [50] was > 100 µM. It also gave a GI50 [51] of 21.6 µM, a TGI [51] of 94.5 µM and a GI50 [52] of 58.4 µM. For the same compound, the TGI [52] was > 100 µM.
